Data taken from publication PMC11767423, “Design, Synthesis, and Antioxidant and Anti-Tyrosinase Activities of (Z)-5-Benzylidene-2-(naphthalen-1-ylamino)thiazol-4(5H)-one Analogs: In Vitro and In Vivo Insights” (Molecules, 2025).

What was measured:
[1] = Assay for ROS scavenging (SIN-1/DCFH); details: 40 μM sample; 10 μM SIN-1
Protocol: To assess the ability of compounds 1–15 to scavenge ROS, 2′,7′-dichlorodihydrofluorescein (DCFH) solution, which was obtained from hydrolysis of DCFH diacetate by esterase, was mixed with 3-morpholinosydnonimine (SIN-1), a ROS generator, and test samples (1–15 and Trolox, a positive material). ROS produces 2′,7′-dichlorofluorescein (DCF), a fluorescent material, by oxidizing DCFH. The ROS-scavenging activity of the samples was determined by measuring the fluorescence of DCF. The results were obtained at 10 μM SIN-1 and 40 μM sample.
To obtain 2′,7′-dichlorodihydrofluorescein (DCFH) solution, esterase (3 units/2 mL) was mixed with 2.5 mM DCFH diacetate and 50 mM phosphate buffer (pH 7.4). After incubating the mixture at 22 °C for 25 min, it was kept in the dark. 3-Morpholinosydnonimine (SIN-1) and compounds 1–15 were dissolved in phosphate buffer and DMSO, respectively. SIN-1 (10 µL) and compound (10 µL) were added to each well of a 96-well black plate containing phosphate buffer (180 µL), and the concentrations of SIN-1 and compound were 10 and 40 μM, respectively. Trolox (40 μM) was used as a positive material. […] To measure the fluorescence of 2′,7′-dichlorofluorescein at 535 nm, a microplate reader (Berthold Advances GmbH &Co., Bad Wildbad, Germany) was utilized with an excitation wavelength of 485 nm. […]

[2] = Assay for ABTS+ radical scavenging; details: 100 μM
Protocol: The ABTS^+-scavenging efficacy of compounds 1–15 was determined by oxidizing ABTS with K2S2O8 to prepare ABTS^+. The prepared ABTS^+ solution was mixed with the test samples (1–15 and Trolox, a positive control) and the radical-scavenging efficacy of the test samples was explored by measuring the decrease in optical density at 732 nm. All test samples were tested at 100 μM.
To acquire ABTS^+ radicals, ABTS (14 mM in 20 mL H2O) was mixed with K2S2O8 (4.9 mM in 20 mL H2O), an oxidant agent, and stored at 22 °C in a place without light for 15 h. The absorbance of the prepared ABTS^+ radical solution was adjusted to 0.70 ± 0.01 at 732 nm by adding methanol. Test samples (Trolox [positive control] and 1–15) were dissolved in a co-solvent (DMSO:EtOH = 1:10 [v/v]). The diluted ABTS^+ radical solution (90 μL) was added to the test sample solution (10 μL) in each well of a 96-well plate and held at 22 °C in the dark for 2 min. The optical density of each well was recorded at 732 nm every 1 min for 10 min using an ELISA reader. The final concentration of test samples was 100 μM. %Radical-scavenging activity was determined using the formula 100 × [(Abscon − Abssam)/Abscon], where Abscon and Abssam represent the optical densities of the control and the samples, respectively.

[3] = Assay for DPPH radical scavenging; details: 500 μM; 30 min in the dark
Protocol: To evaluate the DPPH radical-scavenging efficacy of 1–15, a DPPH methanol solution was mixed with compounds 1–15, and the mixture was left in the dark. After 30 min, the radical-scavenging efficacy of each compound was determined by measuring the optical density at 517 nm. Vitamin C (L-ascorbic acid) was used for comparing radical-scavenging activity, and all test samples were treated at 500 μM.
DPPH was dissolved in methanol to prepare a 0.2 mM solution, and test samples (vitamin C [L-ascorbic acid, LA; positive control] and 1–15) were dissolved in DMSO to prepare a 5 mM solution. The DPPH methanolic solution (180 μL) was added to the test sample DMSO solution (20 μL) in each well of a 96-well microplate and kept in a place without light for 30 min at 22 °C. Using a VersaMax™ ELISA reader, the optical density of each well was recorded at 517 nm to determine DPPH radical-scavenging activity.

| Structure (SMILES) | ROS-scavenging activity [1] | ABTS+ scavenging [2] | DPPH radical scavenging [3] |
| --- | --- | --- | --- |
| O=C1N=C(Nc2cccc3ccccc23)S/C1=C\c1ccc(O)c(O)c1 [Compound 8, (Z)-5-(3,4-Dihydroxybenzylidene)-2-(naphthalen-1-ylamino)thiazol-4(5H)-one] | very strong ROS-scavenging capacity, which was more potent than that of Trolox | 99% | 77% |
| Cc1c(C)c2c(c(C)c1O)CCC(C)(C(=O)O)O2 (centres unmarked) [Trolox, reference compound] | strong ROS-scavenging activity | 99% | – |
